From patent US3984393A, “Aminoglycoside antibiotics” (The Upjohn Company, priority 1975, dated 1976)
In brackets after ≈: the same amount, converted by molar mass. Like-named read-outs stand apart in the source and are kept apart here.

Legend:
S. aureus UC 746 = experiment: standard microplate test in BHI Agar (MIC), S. aureus UC 746; format: cell-based; details: Staphylococcus aureus, UC746, 20 h, 37°, first table, read-out: Minimum Inhibitory Concentration
Procedure: (§1) Compounds were also tested in a standard microplate test in Brain Heart Infusion (BHI) Agar, at a concentration of 1 mg/ml. Incubation is at 37° and end points are read at 20 hours. Brain Heart Infusion Agar (supplied by Difco Laboratories, Detroit, Michigan, U.S.A.) has the following composition: […]

S. typhi TG-3 = experiment: standard microplate test in BHI Agar (MIC), S. typhi TG-3; format: cell-based; details: Salmonella enterica, 20 h, S. typhi TG-3, retest table, neamine control, read-out: Minimum Inhibitory Concentration
Method in brief: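 A standard microplate test on Brain Heart Infusion agar is run with compound at 1 mg/ml, incubated at 37°, and scored at 20 hours.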

Ps. aeruginosa UC 95 = experiment: standard microplate test in BHI Agar (MIC), Ps. aeruginosa UC 95; format: cell-based; details: Pseudomonas aeruginosa, UC95, 20 h, read-out: Minimum Inhibitory Concentration, Ps. aeruginosa UC 95
Method in brief: (§2)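 Compounds were tested at 1 mg/ml in Brain Heart Infusion agar by microplate assay. Plates were incubated at 37° and end points read at 20 hours.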

St. faecalis UC 694 = experiment: standard microplate test in BHI Agar (MIC), St. faecalis UC 694; format: cell-based; details: Enterococcus faecalis, UC694, 20 h
Method in brief: as §2

E. coli UC 45 = experiment: standard microplate test in BHI Agar (MIC), E. coli UC 45; format: cell-based; details: Escherichia coli, UC45, 20 h, read-out: Minimum Inhibitory Concentration, E. coli UC 45
Method in brief: as §2

S. marcescens UC 131 = experiment: standard microplate test in BHI Agar (MIC), S. marcescens UC 131; format: cell-based; details: Serratia marcescens, UC131, 20 h, read-out: Minimum Inhibitory Concentration, S. marcescens UC 131, retest table, neamine control
Method in brief: as §2

S. aureus UC 570 = experiment: standard microplate test in BHI Agar (MIC), S. aureus UC 570; format: cell-based; details: Staphylococcus aureus, UC570, 20 h, 37°, first table, read-out: Minimum Inhibitory Concentration
Procedure: as §1

P. morgani UC 3186 = experiment: standard microplate test in BHI Agar (MIC), P. morgani UC 3186; format: cell-based; details: 20 h, read-out: Minimum Inhibitory Concentration, P. morgani UC 3186, retest table, neamine control
Method in brief: as §2

S. hemolyticus UC 152 = experiment: standard microplate test in BHI Agar (MIC), S. hemolyticus UC 152; format: cell-based, Streptococcus hemolyticus; details: Streptococcus pyogenes, UC152, 20 h, read-out: Minimum Inhibitory Concentration, S. hemolyticus UC 152
Method in brief: as §2

P. rettgeri UC 339 = experiment: standard microplate test in BHI Agar (MIC), P. rettgeri UC 339; format: cell-based; details: Providencia rettgeri, UC339, 20 h, read-out: Minimum Inhibitory Concentration, P. rettgeri UC 339, retest table, neamine control
Method in brief: as §2

P. mirabilis A-63 = experiment: standard microplate test in BHI Agar (MIC), P. mirabilis A-63; format: cell-based
Method in brief: as §2

K. pneumoniae UC 58 = experiment: standard microplate test in BHI Agar (MIC), K. pneumoniae UC 58; format: cell-based; details: Klebsiella pneumoniae, UC58, 20 h, read-out: Minimum Inhibitory Concentration, K. pneumoniae UC 58
Method in brief: as §2

S. aureus UC 76 = experiment: standard microplate test in BHI Agar (MIC), S. aureus UC 76; format: cell-based, Staphylococcus aureus; details: Staphylococcus aureus, UC76, 20 h
Method in brief: as §2

D. pneumoniae UC 41 = experiment: standard microplate test in BHI Agar (MIC), D. pneumoniae UC 41; format: cell-based; details: Streptococcus pneumoniae, UC41, 20 h, read-out: Minimum Inhibitory Concentration, D. pneumoniae UC 41
Method in brief: as §2

S. flexneri UC 143 = experiment: standard microplate test in BHI Agar (MIC), S. flexneri UC 143; format: cell-based; details: retest table, neamine control
Method in brief: as §2

P. vulgaris UC 93 = experiment: standard microplate test in BHI Agar (MIC), P. vulgaris UC 93; format: cell-based; details: Proteus vulgaris, UC93, 20 h, read-out: Minimum Inhibitory Concentration, P. vulgaris UC 93
Method in brief: as §2

S. schottmuelleri UC 126 = experiment: standard microplate test in BHI Agar (MIC), S. schottmuelleri UC 126; format: cell-based; details: 20 h, read-out: Minimum Inhibitory Concentration
Procedure: Compounds were also tested in a standard microplate test in Brain Heart Infusion (BHI) Agar, at a concentration of 1 mg/ml. Incubation is at 37° and end points are read at 20 hours. Brain Heart Infusion Agar (supplied by Difco Laboratories, Detroit, Michigan, U.S.A.) has the following composition:
Compounds (7β), (7α) and (9) were tested again along with compounds (11) and (14β) against a neamine control using the same conditions as given above.

[1] = BHI agar, 37°, 20 h, first table
[2] = BHI agar, 37°, 20 h, first table, *run on different day
[3] = retest table, group (7β), (14β), neamine control
[4] = retest table, group (9), (11), (7α), neamine control

In the case of `NC[C@H]1O[C@H](O[C@H]2[C@H](O)[C@@H](O)[C@H](N)C[C@@H]2N)[C@H](N)[C@@H](O)[C@@H]1O` [Neamine, reference compound], the MIC (S. aureus UC 746; *run on different day) is reported as 62.5 µg/mL (≈ 194 µM), the MIC (S. aureus UC 746) is reported as 250 µg/mL (≈ 776 µM) and the MIC (S. typhi TG-3; group (7β), (14β)) is reported as 15.6 µg/mL (≈ 48.4 µM). The MIC (S. typhi TG-3; group (9), (11), (7α)) was 31.2 µg/mL (≈ 96.8 µM), the MIC (Ps. aeruginosa UC 95; [1]) was > 1000 µg/mL and the MIC (Ps. aeruginosa UC 95; [2]) was > 1000 µg/mL. It also gave an MIC (Ps. aeruginosa UC 95; [3]) of 1000 µg/mL (≈ 3100 µM), an MIC (Ps. aeruginosa UC 95; [4]) of 1000 µg/mL (≈ 3100 µM) and an MIC (St. faecalis UC 694; read-out: Minimum Inhibitory Concentration, S. faecalis UC 694, retest table, group (7β), (14β), neamine control) of 500 µg/mL (≈ 1550 µM). For the same compound, the MIC (St. faecalis UC 694; read-out: Minimum Inhibitory Concentration, S. faecalis UC 694, retest table, group (9), (11), (7α), neamine control) was 500 µg/mL (≈ 1550 µM), the MIC (St. faecalis UC 694; read-out: Minimum Inhibitory Concentration, St. faecalis UC 694, BHI agar, 37°, 20 h, first table) was 1000 µg/mL (≈ 3100 µM) and the MIC (St. faecalis UC 694; read-out: Minimum Inhibitory Concentration, St. faecalis UC 694, BHI agar, 37°, 20 h, first table, *run on different day) was 500 µg/mL (≈ 1550 µM). It also gave an MIC (E. coli UC 45; [1]) of 62.5 µg/mL (≈ 194 µM), an MIC (E. coli UC 45; [2]) of 125 µg/mL (≈ 388 µM) and an MIC (E. coli UC 45; [3]) of 62.5 µg/mL (≈ 194 µM). For the same compound, the MIC (E. coli UC 45; [4]) was 62.5 µg/mL (≈ 194 µM), the MIC (S. marcescens UC 131; group (7β), (14β)) was 250 µg/mL (≈ 776 µM) and the MIC (S. marcescens UC 131; group (9), (11), (7α)) was 125 µg/mL (≈ 388 µM). It also gave an MIC (S. aureus UC 570; *run on different day) of 62.5 µg/mL (≈ 194 µM), an MIC (S. aureus UC 570) of 250 µg/mL (≈ 776 µM) and an MIC (P. morgani UC 3186; group (7β), (14β)) of 62.5 µg/mL (≈ 194 µM). It also gave an MIC (P. morgani UC 3186; group (9), (11), (7α)) of 31.2 µg/mL (≈ 96.8 µM), an MIC (S. hemolyticus UC 152; [1]) of 3.9 µg/mL (≈ 12.1 µM) and an MIC (S. hemolyticus UC 152; [2]) of 7.8 µg/mL (≈ 24.2 µM). For the same compound, the MIC (S. hemolyticus UC 152; [3]) was 3.9 µg/mL (≈ 12.1 µM), the MIC (S. hemolyticus UC 152; [4]) was 2 µg/mL (≈ 6.2 µM) and the MIC (P. rettgeri UC 339; group (7β), (14β)) was 1000 µg/mL (≈ 3100 µM). The MIC (P. rettgeri UC 339; group (9), (11), (7α)) was 500 µg/mL (≈ 1550 µM), the “Minimum Inhibitory Concentration” value (P. mirabilis A-63; P. mirabilis A-63, retest table, group (7β), (14β), neamine control) was 250 µg/mL and the MIC (P. mirabilis A-63; Proteus mirabilis, A63, 20 h, read-out: Minimum Inhibitory Concentration) was 250 µg/mL (≈ 776 µM). For the same compound, the MIC (K. pneumoniae UC 58; [1]) was 7.8 µg/mL (≈ 24.2 µM), the MIC (K. pneumoniae UC 58; [2]) was 15.6 µg/mL (≈ 48.4 µM) and the MIC (K. pneumoniae UC 58; [3]) was 3.9 µg/mL (≈ 12.1 µM). It also gave an MIC (K. pneumoniae UC 58; [4]) of 7.8 µg/mL (≈ 24.2 µM), an MIC (S. aureus UC 76; read-out: Minimum Inhibitory Concentration, S. aureus 284 UC 76, BHI agar, 37°, 20 h, first table) of 125 µg/mL (≈ 388 µM) and an MIC (S. aureus UC 76; read-out: Minimum Inhibitory Concentration, S. aureus 284 UC 76, BHI agar, 37°, 20 h, first table, *run on different day) of 62.5 µg/mL (≈ 194 µM). The MIC (S. aureus UC 76; read-out: Minimum Inhibitory Concentration, S. aureus UC 76, retest table, group (7β), (14β), neamine control) was 31.2 µg/mL (≈ 96.8 µM), the MIC (S. aureus UC 76; read-out: Minimum Inhibitory Concentration, S. aureus UC 76, retest table, group (9), (11), (7α), neamine control) was 31.2 µg/mL (≈ 96.8 µM) and the MIC (D. pneumoniae UC 41; [1]) was > 1000 µg/mL. For the same compound, the MIC (D. pneumoniae UC 41; [2]) was > 1000 µg/mL, the MIC (D. pneumoniae UC 41; [3]) was 31.2 µg/mL (≈ 96.8 µM) and the MIC (D. pneumoniae UC 41; [4]) was 62.5 µg/mL (≈ 194 µM). The MIC (S. flexneri UC 143; Shigella flexneri, UC143, 20 h, group (9), (11), (7α), read-out: Minimum Inhibitory Concentration) was 62.5 µg/mL (≈ 194 µM), the “Minimum Inhibitory Concentration” value (S. flexneri UC 143; group (7β), (14β)) was 62.5 µg/mL and the MIC (P. vulgaris UC 93; [1]) was 250 µg/mL (≈ 776 µM). The MIC (P. vulgaris UC 93; [2]) was 125 µg/mL (≈ 388 µM), the MIC (P. vulgaris UC 93; [3]) was 62.5 µg/mL (≈ 194 µM) and the MIC (P. vulgaris UC 93; [4]) was 15.6 µg/mL (≈ 48.4 µM). For the same compound, the MIC (S. schottmuelleri UC 126; BHI agar, 37°, first table, *run on different day) was 62.5 µg/mL (≈ 194 µM), the MIC (S. schottmuelleri UC 126; BHI agar, 37°, first table) was 62.5 µg/mL (≈ 194 µM) and the MIC (S. schottmuelleri UC 126; [3]) was 31.2 µg/mL (≈ 96.8 µM). The MIC (S. schottmuelleri UC 126; [4]) was 62.5 µg/mL (≈ 194 µM).
